Key:
intracellular Ca2+ = test: Living cell calcium tracking (Fluo-3 fluorescence); assay type: cell-based; conditions: low-dose thrombin (2 U/mL)
Experimental: After the cells were grown on the confocal dish for 24 h, they were washed by PBS and cultured in living cell fluorescence imaging medium (Thermo) with the calcium indicator (Fluo-3, Invitrogen, […]) and pluronic F-127 (0.02%) in incubator for 1 h. They were then washed by fresh culture medium twice and incubated for a further 30 min to allow complete de-esterification of intracellular acetoxymethyl esters. The living cell fluorescent images were then captured by fluorescence microscope (Zeiss) with the frame rate of 1 side/min.

NIH 3T3 cells = test: Label-free monitoring of cell adhesion, morphology and intracellular dynamics on the LED/GaN chipscope (photocurrent and DIC imaging); assay type: cell-based
Source text: As a monolithic integration design of the chip, the same shared sapphire substrate can realize the light coupling from the LED to the PD without any external optics, as shown in FIG. 5a. In particular, when the lights emitted from LED reached external media with a low RI (i.e., nmedia<nsapphire), total internal reflection occurred at the sapphire/media interface, causing some light to be reflected into the light-detecting region. The intensity of the reflected light is then detected by the PD. Since the critical angle enlarges as the refractive index increases, less light is reflected back to the PD, resulting in a decrease in the photocurrent. When the cells are in contact with the chip surface, the sensor provides a rapid photocurrent response due to the obvious RI change from sapphire-culture medium (1.78 to 1.337) to sapphire-cells (1.78 to 1.343-1.48). Furthermore, the formation of strong cell-substrate adhesion and/or the evolution of cell morphology could also result in changes in the recorded photocurrent.
NIH 3T3 cells are used in the present study due to their rapid adhesion response and significant cell area changes during spreading. First performed a live/dead assay test to evaluate the potential phototoxicity of the chip to the cells. […] Next, after the chip was stabilized in the incubator at 37° C., the cell suspension was added into the chip chamber. […] Benefitting from the integrated mini-DIC imaging system, we can clearly capture the cell morphology changes in real-time. As shown in the top panel of FIG. 7b, the round cells gradually precipitated onto the chip surface in the first 30 min (step 1), and then started to extend in the next 4 h (step 2). After that, they continued to flatten and formed a dense monolayer sheet covering the entire chip surface (step 3). These observed cell morphology changes closely matched the optical response of the chip, indicating the successful integration of GaN chip-based sensing and DIC imaging units in our system for cellular activity monitoring. Additionally, to mimic the cell detachment process (step 4), we treated the cells with sodium dodecyl sulfate (SDS), a known surfactant that can detach and lyse adhering cells from culture dishes or flasks.
• Cells (NIH 3T3, 0.3 million/mL, 500 uL, 37° C.) were seeded on the LED chip and transferred to the incubator (37° C.). Then the ammeter started to monitor the optical current at specific time points. The control experiment was performed by monitoring the solo cell culture medium with an identical chip (DMEM, 500 uL, 37° C.). • The bright-field images of cells were collected at specific time points to monitor the initial stage of cells adhesion and extension. The cells were cultured on sapphire, the substrate of which was identical with the top layer of LED chips.
3T3 cells were grown on the chip surface for overnight and then were washed once and replaced with HEPES buffer (HBSS). After the system was restabilized, various concentrations of thrombin (MCE) were injected into the cell chamber. The signal dynamics were recorded by a meter.

[1] = system: human lung adenocarcinoma cells (A549); test: GaN chipscope drug screening: cytotoxicity of an anticancer drug on an A549 cell monolayer (photocurrent and imaging); assay type: cell-based; conditions: A549, 5 hours of drug treatment
[2] = system: human lung adenocarcinoma cells (A549); test: as above; assay type: cell-based; conditions: for decrease of cell confluence: after 24 h incubation
Experimental: The A549 cells are seeded in the chamber of the platform and cultured for 24 h for fully spreading. Afterward, 10 μM, 30 μM or 50 μM of β-lapachone is added into the chambers, respectively.
Additionally, the photocurrent curves offered valuable practical information for the study of drug-cell interactions. First, by plotting the slope of the tangent line, the speed of cell response at different periods was analyzed. […] Indeed, a higher dose is more toxic and induces faster cell death. Thirdly, by coupling the imaging system, we were able to qualitatively and quantitatively analyze the cell-drug interactions. As shown in FIG. 9b-d, the cells shrank in a dose-dependent manner after β-lapachone treatment. Specifically, cells treated with a lower dose (10 μM) slowly shrank over time, but there is no obvious increase in intercellular spaces during the 24 h. […] It is believed that the increase in photocurrent in higher dose-treated cells is contributed by both cell morphology changes as well as by cell intracellular dynamics alternation. Further, the cell confluency is calculated based on the photos taken by the imaging system.

THP-1 cells = test: Flow cytometry of macrophage surface markers CD11b and CD80; assay type: cell-based, human; conditions: THP-1 cells after incubation with PMA
Experimental: Phorbol-12-myristate-13-acetate (PMA, MCE, 25 ng/mL) was used to induce monocytes differentiation to M0 macrophages. For further polarization, 100 ng/mL lipopolysaccharide (LPS, Thermo) and 20 ng/mL interferon-γ (IFN-γ, Thermo) were added to the culture to induce M1 generation. The cells were stimulated to M0 and M1 macrophages for 24 h. Flow cytometry and immunofluorescence staining were used to assess the expression of macrophage-specific cell surface marker: CD11 b for monocyte/macrophage differentiation and CD 80 for M1 macrophage polarization.
The harvested cells were washed with cold PBS and then the Fc receptor binding sites were blocked by incubating with Human TruStain FcX™ (422302, Biolegned) on ice for 20 min. The cells were then incubated with either FITC labeled CD 11 b (301329, Biolegend) or FITC labeled CD 80 (305206, Biolegend) in darkness for another 30 min. After centrifugation, the cells were washed twice with FACS buffer (PBS containing 2% BSA) and immediately measured by the flow cytometer Novoexpress (Agilent).

[3] = system: human monocytic THP-1 cells; test: GaN chipscope monitoring of cell differentiation (cell area and roundness from images); assay type: cell-based; conditions: THP-1 monocyte to M0, PMA 25 ng/mL, 3-9 h after stimulation
Source text: The cell refractive index is an intrinsic optical parameter that varies with different cell phenotypes. This inspired the exploration of whether the sensing platform could track online the dynamics of cell differentiation and distinguish the different cell phenotypes. In this experiment, human monocytic THP-1 cells are employed as the cell model due to their multi-phenotypic characteristics, including the initial suspended monocyte, adhered macrophage (M0), and two major polarized states (adhered M1 and M2). Here, THP-1 cells differentiated from suspended state (monocyte) to adhered M0 state by phorbol 12-myristate 13-acetate (PMA), followed by induction of the resultant M0 cells to polarize to M1 by LPS/FN-gamma. The process is monitored throughout by the GaN chipscope system (FIG. 10a).
Consistent with the photocurrent signal, the imaging system recorded a fast cell rolling behavior in the initial 30 min before the cells settled down (FIG. 10b). PMA (25 ng/mL) is then loaded to trigger monocyte to macrophage differentiation. It is evident from the photocurrent signal that monocytes responded strongly against PMA in 3-9 h after stimulation, and this response became mild in the following 11 h (FIG. 10b).
Phorbol-12-myristate-13-acetate (PMA, MCE, 25 ng/mL) was used to induce monocytes differentiation to M0 macrophages. […]

Compound: thrombin
- calcium fluorescence response of living cells (intracellular Ca2+): biphasic cell response
- time at which photocurrent reached a plateau (NIH 3T3 cells; 3T3 monolayer, thrombin 150 U/mL): 50 min
- maximal change (increase) of photocurrent (NIH 3T3 cells; 3T3 monolayer, thrombin high dose 150 U/mL): 1.66%
- decrease of photocurrent signal (NIH 3T3 cells; 3T3 monolayer, thrombin low dose 2 U/mL, first 10 min, returned to initial level in next 30 min): 0.94%

Compound: CC1(C)CCC2=C(O1)c1ccccc1C(=O)C2=O [β-lapachone]
- photocurrent response monitored by the LED sensor during drug treatment [1]: gradually increased
- reaction time of the cells from photocurrent curve ([2]; A549, 10 μM): 20.2 h
- reaction time of the cells from photocurrent curve ([2]; A549, 30 μM): 11.6 h
- reaction time of the cells from photocurrent curve ([2]; A549, 50 μM): 12.5 h
- cytotoxicity in A549 cells (photocurrent increase with drug concentration) ([2]; A549, 10, 30, 50 μM): dose-depend cytotoxicity
- speed of cell response (slope of photocurrent curve) at 50 μM relative to 10 μM ([2]; A549, first 5 h of stimulation): 6.05 times
- speed of cell response (slope of photocurrent curve) at 50 μM relative to 30 μM ([2]; A549, first 5 h of stimulation): 2.85 times
- decrease of cell confluence ([2]; A549, high dose (50 μM)): 23.1%
- decrease of cell confluence ([2]; A549, low dose (10 μM)): 0%
- decrease of cell confluence ([2]; A549, medium dose (30 μM)): 19.0%

Compound: CCCCCCCCCCCCCC(=O)O[C@@H]1[C@@H](C)[C@@]2(O)[C@@H](C=C(CO)C[C@]3(O)C(=O)C(C)=C[C@@H]23)[C@@H]2C(C)(C)[C@]12OC(C)=O [PMA, phorbol 12-myristate 13-acetate]
- expression of CD11b (THP-1 cells): significantly increased
- increase in cell spreading area [3]: 137%

Compound: CCCCCCCCCCCCOS(=O)(=O)[O-].[Na+] [SDS, sodium dodecyl sulfate]
- rapid increase of photocurrent signal after addition (NIH 3T3 cells; 3T3 monolayer, cell detachment step): 4.24%
- detachment of cell monolayer from chip surface (NIH 3T3 cells; 3T3 monolayer, within a few seconds of loading): completely detached

Compound: Cc1ccc2c(c1)C(=O)C1(O)CCN(c3ccccc3)C1=N2 (centres unmarked) [blebbistatin]
- cell morphology after treatment (imaging) (NIH 3T3 cells; 3T3 cells, 50 μM, next 1 h, increased cell gaps and dendritic morphologies): gradually shrank
- increase of relative optical current compared to the control group (NIH 3T3 cells; 3T3 cells, blebbistatin 50 μM, treated for 50 min): 1.02%
